Laboratory results from patent publication US20250360118A1, “TREATMENT OF FIBROTIC DISORDERS WITH METABOTROPIC GLUTAMATE RECEPTOR 5 ANTAGONISTS OR/AND CANNABINOID RECEPTOR 1 ANTAGONISTS” (THE UNITED STATES OF AMERICA,AS REPRESENTED BY THE …, priority 2022, published 2025).
“Also recorded” adds a separate entry of the source.

Assays:
Assay type in all cases: in vivo, mice
[1] = system: bleomycin-induced PF mouse model; assay: Survival in bleomycin-induced pulmonary fibrosis mouse model
Description: (§1) The compounds were administered by oral gavage once daily as indicated. The vehicle was a 1:1:18 ratio of DMSO:Tween® 80:saline. Oral formulations were applied at 0.3 and 3 mg/mL concentrations to achieve doses of 3 and 30 mg/kg, respectively.
(§2) All animal procedures were conducted in accordance with the rules and regulations of the Institutional Animal Care and Use Committee of the National Institutes of Alcohol Abuse and Alcoholism (NIAAA), under the protocols of LPS-GK1. Thirteen-week-old male C57BL/6J mice were obtained from The Jackson Laboratory (Bar Harbor, Maine, USA). Grm5^−/− (mGluR5 KO) mice (JAX 003121) were purchased from The Jackson Laboratory. […] (CB1R KO) mice were generated as described in Zimmer et al., Proc. Natl. Acad. Sci. USA, 96:5780-5785 (1999). Cnr1^−/− and Grm5^−/− mice were on a C57BL/6J genetic background. Both Grm5^−/− and Cnr1^−/− mice colonies were maintained with heterozygous breeding. Mice were housed individually under a 12-hour light/dark cycle and fed a standard diet, ad libitum (Teklad NIH-31; Envigo, Huntingdon, UK).
A bleomycin-induced pulmonary fibrosis model by delivery of bleomycin via oropharyngeal aspiration was generated as described in Park et al., Am. J. Respir. Cell Mol. Biol., 62(2):178-190 (2020). Briefly, bleomycin was delivered to mice anesthetized with ketamine/xylazine through the oropharynx at 1 U/kg dose using a sterile 100 μL pipette during inspiration at a volume of 100 μL/50 g body weight. Sterile saline was used as vehicle and applied to the control groups. The animals were then allowed to recover from the anesthesia.
Survival curves were plotted using GraphPad Prism 9 software. Survival was analyzed by using Log-rank (Mantel-Cox) test for assessing the statistical difference between animal groups.

[2] = system: bleomycin-induced PF mouse model; assay: Body weight in bleomycin-induced PF mouse model; settings: basimglurant 3 mg/kg oral, days 8 to 28 after single bleomycin administration, vs vehicle
Description: as §1, §2
A bleomycin-induced pulmonary fibrosis model by delivery of bleomycin via oropharyngeal aspiration was generated as described in Park et al., Am. J. Respir. Cell Mol. Biol., 62(2):178-190 (2020). […]

[3] = system: bleomycin-induced PF mouse model; assay: Lung function measurements (FlexiVent) in bleomycin-induced PF mouse model
Description: as §1
as §2, with “Mice were housed individually under a 12-hour light/dark cycle and fed a standard diet, ad libitum (Teklad NIH-31; Envigo, Huntingdon, UK).” left out
Respiratory system mechanics measurements were performed using the FlexiVent FX system (SCIREQ Inc., Montreal, Canada), which is equipped with an FX1 module and negative pressure forced expiration (NPFE) extension for mice. […] Pressure-volume (PV) curve, airway resistance, tissue damping (G), tissue elastance (H), forced expiratory volume per 0.1 seconds (FEV 0.1), forced vital capacity (FVC), inspiratory capacity (IC), and inhaled air amount (A) parameters were measured. […]

[4] = system: bleomycin-induced PF mouse model; assay: Lung hydroxyproline (fibrosis marker) in bleomycin-induced PF mouse model; settings: fenobam 30 mg/kg daily oral for 14 days vs vehicle, bleomycin 1 U/kg
Description: as §1
as §2, with “UK). […]” for “UK).”
The degree of lung fibrosis was quantified biochemically by measuring the hydroxyproline content of lung extracts using liquid chromatography/tandem mass spectrometry (LC-MS/MS) as described in Park et al., Am. […]

[5] = basimglurant 3 mg/kg oral, days 8 to 28 after single bleomycin administration, vs vehicle

Compound: Cc1nc(C#Cc2ccnc(Cl)c2)c(C)n1-c1ccc(OC(F)(F)F)cc1 [CTEP, 2-chloro-4-((2,5-dimethyl-1-(4-(trifluoromethoxy)phenyl)-1H-imidazol-4-yl)ethynyl)pyridine]
- survival rate ([1]; CTEP 3 mg/kg daily oral for 28 days after single oropharyngeal bleomycin 1 U/kg, vehicle-treated mice 50%): 100%
- survival (in words) ([1]; CTEP 3 mg/kg daily oral gavage vs vehicle, bleomycin 1 U/kg): significantly improved survival; also recorded: prevented mortality

Compound: Cc1nc(C#Cc2ccnc(Cl)c2)c(C)n1-c1ccc(F)cc1 [basimglurant]
- survival rate (in words) [1, 5]: increased survival rate
- body weight loss [2]: reduced body weight loss
- pulmonary tissue stiffness [3, 5]: reduced pulmonary tissue stiffness

Compound: CN1CC(=O)NC1=NC(=O)Nc1cccc(Cl)c1 [fenobam]
- fibrosis as measured by hydroxyproline level in lungs [4]: significantly attenuated fibrosis; also recorded: attenuated pulmonary fibrosis
- decline in pulmonary function parameter: forced expiratory volume (FEV) at 0.1 sec. (air flow) ([3]; fenobam 30 mg/kg daily oral for 14 days vs vehicle, bleomycin 1 U/kg): significantly attenuated
